Results taken from patent US11384063B2, “Modulators of estrogen receptor proteolysis and associated methods of use” (Arvinas Operations, Inc., priority 2017, dated 2022).

Target: T1, ERα (Homo sapiens, UniProt P03372)
T1 sequence (P03372 1-595): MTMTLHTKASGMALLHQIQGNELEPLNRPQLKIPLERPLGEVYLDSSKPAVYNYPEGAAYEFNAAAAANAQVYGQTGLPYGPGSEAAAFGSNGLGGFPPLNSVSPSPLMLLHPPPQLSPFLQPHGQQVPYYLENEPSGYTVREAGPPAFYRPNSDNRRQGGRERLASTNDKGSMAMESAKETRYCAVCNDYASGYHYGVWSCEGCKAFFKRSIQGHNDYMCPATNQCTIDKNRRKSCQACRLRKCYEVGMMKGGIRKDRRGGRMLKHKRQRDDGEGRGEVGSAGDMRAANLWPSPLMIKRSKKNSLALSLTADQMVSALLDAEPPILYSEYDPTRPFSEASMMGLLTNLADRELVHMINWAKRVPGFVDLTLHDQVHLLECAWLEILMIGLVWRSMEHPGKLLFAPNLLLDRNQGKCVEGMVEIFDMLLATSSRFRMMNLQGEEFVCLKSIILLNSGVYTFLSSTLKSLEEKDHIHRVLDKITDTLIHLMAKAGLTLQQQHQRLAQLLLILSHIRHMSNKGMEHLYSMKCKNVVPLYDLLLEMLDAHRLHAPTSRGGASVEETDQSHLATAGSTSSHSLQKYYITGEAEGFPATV
Experiment: ERE luciferase reporter gene assay in T47D-KBluc cells (target engagement)
Type: cell-based
Design: T47D human breast cancer cells stably transfected with estrogen responsive element/promoter/luciferase reporter gene; host or cells: T47D-KBluc cells
Details: 10% FBS, 24 hours, Table 1 cereblon centric PROTACs, read-out: ER-α Luciferase IC50
Description: Chimeric molecules were assessed for target engagement in T47D cells using the commercial kit of ERE luciferase reporter gene assay. In the assay, 10% FBS was included and estrogen level was measured to be 10 pM.
ERE Luciferase Assay for Compounds in Table 1-3.
T47D-KBluc cells (ATCC #CRL_2865, T47D human breast cancer cells stably transfected with estrogen responsive element/promoter/luciferase reporter gene) were seeded into 96-well white opaque plates in RPMI growth medium supplemented with 10% fetal bovine serum and allowed to adhere overnight in a 37° C. humidified incubator. The following day, cells were treated with PROTACs in a 12-point concentration curve (top final concentration of 300 nM with subsequent concentrations being 3-fold less with 2 pM being the lowest concentration in the assay). Each PROTAC was tested independently in two experiments on 96-well plates. After 24 hours, media was removed and lysis buffer was added to the wells. Following lysis, Bright-Glo™ Luciferase Assay Substrate (Prornega, Madison Wis.) was added and the luciferase activity was measured using a Cytation 3 plate reader (TioTek™, Winooski, Vt.). Each compound was assayed in duplicates and the activity was calculated as IC50 using GraphPad Prism software (San Diego, Calif.).

Row | IC50 [nM] | SMILES
1 | 26.2 | O=C1CCC(N2C(=O)c3ccc(N4CCN(CCCCCCOc5ccc(Oc6c(-c7ccc(Br)cc7)sc7cc(O)ccc67)cc5)CC4)cc3C2=O)C(=O)N1 (centres unmarked) [Compound 51]
2 | 81.4 | O=C1CCC(N2Cc3c(NCCOCCOCCOCCOCCOc4ccc(Oc5c(-c6ccc(Br)cc6)sc6cc(O)ccc56)cc4)cccc3C2=O)C(=O)N1 (centres unmarked) [Compound 18]
3 | 1.6 | O=C1CCC(N2C(=O)c3ccc(CCCOC4CCN(CCOc5ccc(Oc6c(-c7ccc(Br)cc7)sc7cc(O)ccc67)cc5)CC4)cc3C2=O)C(=O)N1 (centres unmarked) [Compound 70]
4 | 3.1 | O=C1CCC(N2Cc3cc(OCCOCCOCCOc4ccc(Oc5c(-c6ccc(Br)cc6)sc6cc(O)ccc56)cc4)ccc3C2=O)C(=O)N1 (centres unmarked) [Compound 39]
5 | 19.2 | O=C1CCC(N2C(=O)c3cccc(NCCOCCOc4ccc(Oc5c(-c6ccc(Br)cc6)sc6cc(O)ccc56)cc4)c3C2=O)C(=O)N1 (centres unmarked) [Compound 29]
6 | 0.09 | O=C1CCC(N2Cc3c(NCCN4CCN(CCOc5ccc(Oc6c(-c7ccc(O)cc7)sc7cc(O)ccc67)cc5)CC4)cccc3C2=O)C(=O)N1 (centres unmarked) [Compound 4]
7 | 6.6 | O=C1CCC(N2Cc3cc(N4CCN(CCCCOc5ccc(Oc6c(-c7ccc(Br)cc7)sc7cc(O)ccc67)cc5)CC4)ccc3C2=O)C(=O)N1 (centres unmarked) [Compound 58]
8 | 10.6 | O=C1CCC(N2C(=O)c3ccc(N4CCN(CCOc5ccc(Oc6c(-c7ccc(Br)cc7)sc7cc(O)ccc67)cc5)CC4)cc3C2=O)C(=O)N1 (centres unmarked) [Compound 56]
9 | 8.9 | O=C1CCC(N2Cc3c(OCCOCCOCCOc4ccc(Oc5c(-c6ccc(Br)cc6)sc6cc(O)ccc56)cc4)cccc3C2=O)C(=O)N1 (centres unmarked) [Compound 19]
10 | 8.8 | Cc1nc2c(OCCN3CCN(CCOc4ccc(Oc5c(-c6ccc(Br)cc6)sc6cc(O)ccc56)cc4)CC3)cccc2c(=O)n1C1CCC(=O)NC1=O (centres unmarked) [Compound 16]
11 | 34.1 | O=C1CCC(N2C(=O)c3ccc(OCCCOCCCOc4ccc(Oc5c(-c6ccc(Br)cc6)sc6cc(O)ccc56)cc4)cc3C2=O)C(=O)N1 (centres unmarked) [Compound 77]
12 | 2.2 | O=C1CCC(N2Cc3cc(OC4CC5(CCN(CCOc6ccc(Oc7c(-c8ccc(Br)cc8)sc8cc(O)ccc78)cc6)CC5)C4)ccc3C2=O)C(=O)N1 (centres unmarked) [Compound 50]
13 | 30.9 | O=C1CCC(N2C(=O)c3ccc(NCCCOCCCOCCCOc4ccc(Oc5c(-c6ccc(Br)cc6)sc6cc(O)ccc56)cc4)cc3C2=O)C(=O)N1 (centres unmarked) [Compound 84]
14 | 3.6 | O=C1CCC(N2Cc3cc(N4CCN(CCCOc5ccc(Oc6c(-c7ccc(Br)cc7)sc7cc(O)ccc67)cc5)CC4)ccc3C2=O)C(=O)N1 (centres unmarked) [Compound 59]
15 | 17.7 | Cc1nc2c(NCCN3CCN(CCOc4ccc(Oc5c(-c6ccc(Br)cc6)sc6cc(O)ccc56)cc4)CC3)cccc2c(=O)n1C1CCC(=O)NC1=O (centres unmarked) [Compound 14]
16 | 6.6 | O=C1CCC(N2C(=O)c3ccc(NCCOCCOc4ccc(Oc5c(-c6ccc(Br)cc6)sc6cc(O)ccc56)cc4)cc3C2=O)C(=O)N1 (centres unmarked) [Compound 75]
17 | 2.9 | O=C1CCC(N2Cc3cc(NCCCC4CCN(CCOc5ccc(Oc6c(-c7ccc(Br)cc7)sc7cc(O)ccc67)cc5)CC4)ccc3C2=O)C(=O)N1 (centres unmarked) [Compound 64]
18 | 1.1 | O=C1CCC(N2Cc3c(OCCN4CCN(CCOc5ccc(Oc6c(-c7ccc(Br)cc7)sc7cc(O)ccc67)cc5)CC4)cccc3C2=O)C(=O)N1 (centres unmarked) [Compound 7]
19 | 9.9 | O=C1CCC(N2Cc3cc(OCCCOCCCOc4ccc(Oc5c(-c6ccc(Br)cc6)sc6cc(O)ccc56)cc4)ccc3C2=O)C(=O)N1 (centres unmarked) [Compound 35]
20 | 16.8 | O=C1CCC(N2Cc3c(NCCOCCOCCOc4ccc(Oc5c(-c6ccc(Br)cc6)sc6cc(O)ccc56)cc4)cccc3C2=O)C(=O)N1 (centres unmarked) [Compound 24]
21 | 0.6 | CC(COc1ccc(Oc2c(-c3ccc(Br)cc3)sc3cc(O)ccc23)cc1)N1CCN(CCCCc2ccc3c(c2)CN(C2CCC(=O)NC2=O)C3=O)CC1 (centres unmarked) [Compound 53]
22 | 1.8 | O=C1CCC(N2Cc3cc(N4CCN(CCOc5ccc(Oc6c(-c7ccc(Br)cc7)sc7cc(O)ccc67)cc5)CC4)ccc3C2=O)C(=O)N1 (centres unmarked) [Compound 55]
23 | 8.2 | O=C1CCC(N2C(=O)c3cccc(NCCOc4ccc(Oc5c(-c6ccc(Br)cc6)sc6cc(O)ccc56)cc4)c3C2=O)C(=O)N1 (centres unmarked) [Compound 32]
24 | 0.94 | O=C1CCC(N2Cc3cc(NCCCN4CCN(CCOc5ccc(Oc6c(-c7ccc(Br)cc7)sc7cc(O)ccc67)cc5)CC4)ccc3C2=O)C(=O)N1 (centres unmarked) [Compound 71]

Same assay, conditions: 10% FBS, 24 hours, Table 2 VHL centric PROTACs, read-out: IC50

Row | IC50 [nM] | SMILES
25 | 97 | CC(C)(C)[C@H](NC(=O)Cc1ccc(-c2ccn(CCOc3ccc(Oc4c(-c5ccc(F)cc5)sc5cc(O)ccc45)cc3)n2)cc1)C(=O)N1C[C@H](O)C[C@H]1C(=O)NCc1ccc(C#N)cc1 [Compound 145]
26 | > 100 | CC(C)(C)[C@H](NC(=O)Cc1ccc(-c2ccn(CCOc3ccc(Oc4c(-c5ccc(F)cc5)sc5cc(O)ccc45)cc3)n2)cc1)C(=O)N1C[C@H](O)C[C@H]1C(=O)NCc1ccc(Cl)cc1 [Compound 146]
27 | 1.3 | C[C@H](NC(=O)[C@@H]1C[C@@H](O)CN1C(=O)[C@@H](NC(=O)COCCOCCOCCOc1ccc(Oc2c(-c3ccc(F)cc3)sc3cc(O)ccc23)cc1)C(C)(C)C)c1ccc(C#N)cc1 [Compound 132]

The remaining lines, values behind:

Row | SMILES | IC50 [nM]
28 | Cc1ncsc1-c1ccc(CNC(=O)[C@@H]2C[C@@H](O)CN2C(=O)[C@@H](NC(=O)CCCOCC2CCN(CCOc3ccc(Oc4c(-c5ccc(F)cc5)sc5cc(O)ccc45)cc3)C2)C(C)(C)C)cc1 (some centres unmarked) [Compound 131] | 0.4
29 | Cc1ncsc1-c1ccc(CNC(=O)[C@@H]2C[C@@H](O)CN2C(=O)[C@@H](NC(=O)CCCC(=O)N2CCN(CCOc3ccc(Oc4c(-c5ccc(F)cc5)sc5cc(O)ccc45)cc3)CC2)C(C)(C)C)cc1 [Compound 114] | 22

Same assay, conditions: 10% FBS, 24 hours, Table 3 cereblon centric PROTACs, read-out: ER-α Luciferase IC50

Row | IC50 [nM] | SMILES
30 | 8.7 | O=C1CCC(N2C(=O)c3ccc(N4CCC(CN5CCC(Oc6ccc(Oc7c(-c8ccc(C(F)(F)F)cc8)sc8cc(O)ccc78)cc6)CC5)CC4)cc3C2=O)C(=O)N1 (centres unmarked) [Compound 188]
31 | 5.6 | O=C1CCC(N2Cc3cc(NCCCOCCCOCCCOc4ccc(Oc5c(-c6ccc(Br)cc6)sc6cc(O)ccc56)cc4)ccc3C2=O)C(=O)N1 (centres unmarked) [Compound 170]
32 | 2.3 | O=C1CCC(N2Cc3cc(N4CCN(CCOc5ccc(Oc6c(-c7ccc(Br)cc7)sc7cc(O)ccc67)cc5)CC4)ccc3C2=O)C(=O)N1 (centres unmarked) [Compound 210]
33 | 4.7 | O=C1CCC(N2Cc3c(cc(F)c(N4CCN(C5CCN(CCOc6ccc(Oc7c(-c8ccc(C(F)(F)F)cc8)sc8cc(O)ccc78)cc6)CC5)CC4)c3F)C2=O)C(=O)N1 (centres unmarked) [Compound 203]
34 | 19.1 | O=C1CCC(N2Cc3cc(N4CCN(CCCOc5ccc(Oc6c(-c7ccc(OC(F)(F)F)cc7)sc7cc(O)ccc67)cc5)CC4)c(F)cc3C2=O)C(=O)N1 (centres unmarked) [Compound 219]
35 | 8 | O=C1CCC(N2Cc3cc(NCCCOCCCOCCCCOc4ccc(Oc5c(-c6ccc(Br)cc6)sc6cc(O)ccc56)cc4)ccc3C2=O)C(=O)N1 (centres unmarked) [Compound 173]
36 | 3 | O=C1CCC(N2C(=O)c3ccc(N4CC(CN5CCN(CCOc6ccc(Oc7c(-c8ccc(Br)cc8)sc8cc(O)ccc78)cc6)CC5)C4)cc3C2=O)C(=O)N1 (centres unmarked) [Compound 189]
37 | 66.7 | O=C1CCC(N2C(=O)c3ccc(OCCCOCCCOCCCCOc4ccc(Oc5c(-c6ccc(Br)cc6)sc6cc(O)ccc56)cc4)cc3C2=O)C(=O)N1 (centres unmarked) [Compound 175]
38 | 15 | O=C1CCC(N2C(=O)c3ccc(N4CCC(N5CC(Oc6ccc(Oc7c(-c8ccc(Br)cc8)sc8cc(O)ccc78)cc6)C5)CC4)cc3C2=O)C(=O)N1 (centres unmarked) [Compound 212]
